# Target: T1, V247M mutant of alpha-sarcoglycan (Homo sapiens, UniProt Q16586, V247M)
# T1 construct: expressed in transfected cells; host or cells: HEK 293
# T1 sequence (Q16586 24-387 V247M): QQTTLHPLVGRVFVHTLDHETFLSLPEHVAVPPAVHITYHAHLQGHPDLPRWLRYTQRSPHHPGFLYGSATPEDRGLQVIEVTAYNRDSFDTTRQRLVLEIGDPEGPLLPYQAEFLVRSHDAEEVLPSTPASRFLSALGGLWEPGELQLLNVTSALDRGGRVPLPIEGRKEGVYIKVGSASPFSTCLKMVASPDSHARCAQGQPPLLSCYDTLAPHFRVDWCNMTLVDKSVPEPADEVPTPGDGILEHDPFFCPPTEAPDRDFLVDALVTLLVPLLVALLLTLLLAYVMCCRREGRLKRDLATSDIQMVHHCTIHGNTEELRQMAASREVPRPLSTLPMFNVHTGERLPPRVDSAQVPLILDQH
# Experiment: Confocal immunofluorescence, membrane localization of V247M alpha-sarcoglycan in HEK293 cells
# Format: cell-based
# Details: FIG. 2; HEK293, 24 hours; E 10 μM, D 10 μM, MG132 positive control; not permeabilized cells
# Protocol: The cellular localization of either the V247M or R98H mutants, upon corrector treatments, has been verified by confocal immunofluorescence.
# In the experiment reported in FIG. 2, HEK 293 cells expressing the V247M mutant have been treated for 24 hours with either Compound E (10 μM) or Compound D (10 μM), MG132 (positive control) or DMSO at 1‰ concentration (negative control). At the end of treatments, not permeabilized cells were incubated with a monoclonal antibody specific for an extracellular epitope of α-sarcoglycan in order to mark only the membrane resident α-sarcoglycan. By comparison, cells expressing the wild type form of α-sarcoglycan have also been used.
compound,measurement,value
"COc1ccc(Cl)cc1Nc1nc(-c2sc(NC(=O)c3ccccc3)nc2C)cs1 [Compound E, N-[2-(5-Chloro-2-methoxy-phenylamino)-4′-methyl-[4,5′]bithiazolyl-2′-yl]-benzamide]",plasma membrane localization of V247M alpha-sarcoglycan mutant,promoted the correct plasma membrane localization
